Data published in US6891063B1, “Salts of asiatic and madecassic acid suitable for the preparation of pharmaceutical and cosmetic compositions” (Euphar Group S.r.l., priority 1999, dated 2005).

Legend:
[1] = system: Croton oil induced oedema in the mouse ear; assay: Test of topical antiinflammatory activity: Croton oil dermatitis in the mouse ear; assay type: in vivo; settings: for ID50 (dose level able to reduce by 50% the oedematous response): linear interpolation from the dose-response relationship, indomethacin value confirmed from past data; for Inhibition (%) of oedema / Oedema (mg) m ± E.S.: 6 hours
Protocol: 3. Test of Topical Antiinflammatory Activity
The antiinflammatory activity of Asialene and L-Asialene was evaluated in comparison to that of the NSAID indomethacin. As experimental model, the Croton oil dermatitis induced in the mouse ear was used (Tubaro et al., Agents & Actions 17: 347-349).
The experimental inflammation was induced on the right ear (surface: about 1 cm^2) of anaesthetised mice (145 mg/kg ketamine hydrochloride i.p.) by application of 80 μg of Croton oil (Sigma-Italy) in 15 μl acetone on the right ear of mice, the left remaining untreated. The tested substances were dissolved in the Croton oil solution. Six hours after the dermatitis induction, the animals were sacrificed and a punch (6 mm diameter) was excised from both the treated and the untreated ears and weighed. The Croton oil induced oedema was quantified by measuring the difference in weight between the treated and untreated (opposite) ear samples. The anti-oedema activity was expressed as percent inhibition of the oedematous response in animals treated with the test substances in comparison to the animals treated with the irritant alone. Male albino Swiss mice CD-1 (Harlan-Italy), weighing 20-32 g, were used. For each substance and dose level, 10 animals were used.
The effects on the vascular response were evaluated as percent oedema inhibition. […] For each substance, the dose level able to reduce by 50% the oedematous response (ID50) was calculated by linear interpolation from the dose-response relationship.
Asialene and L-Asialene were administered at equimolar doses.

[2] = prior art statement; cited from earlier work
human endothelial cells [3] = assay: Fibronectin evaluation (immunofluorescence, intercellular strands) in human endothelial cells in culture; assay type: cell-based; settings: 1.5 μg/ml; after 48 hours; culture medium + EtOH 0.75 g/dl
Protocol: (§1) 1. Test of Production of PG1 and of Fibronectin from Human Endothelial Cells in Culture.
For the Fibronectin evaluation, the primary cultures were resuspended in 0.05% Trypsin/0.02% EDTA. The cells, washed twice in Hanks solution, were counted in order to assure at least 300,000 cells/ml and seeded. After 48 hours the supernatant was removed and the slides were prepared, which after being washed 2 times with PBS, and dried, were fixed in acetic acid/ethanol for 30 minutes; a washing with PBS was then carried out and added the polyclonal rabbit anti-human fibronectin antibody (1:40, Dako). After incubation at room temperature for 30 minutes, it was washed with PBS and the fluoresceinated anti-rabbit immunoglobulin antibody was added (1:100, Dako). The slides were left in incubation for 30 minutes and then mounted on an object holder and read with a fluorescence electronic microscope.
In the following table, the numbers relating to fibronectin intercellular strands (1:100 scale) are reported.

human endothelial cells [4] = assay: Production of PG1 (6-Keto PGF1, RIA) from human endothelial cells in culture; assay type: cell-based; settings: Asialene 1.5 μg/ml, culture medium + EtOH 0.75 g/dl
Protocol: as §1
The activity of the salt prepared in the Example 1, indicated as Asialene, on cicatrization was evaluated by an in vitro test which allows to deduce the effects of the substance on the vascular permeability and on the cicatrization.
The test consists in the evaluation of the production of PG1 from cells extracted by collagenase from vein of human omphalic funicle suspended and seeded in a suitable culture medium (E199+FCS 20%+L-Glutamine 2 mM+Penicillin 200 U/ml+Streptomycin 200 μg/ml) cultured in 75 or 25 ml flasks for 48-72 hours.
After removing the cells with 0.05% Trypsin and 0.02% EDTA the subcultures were prepared using secondary cultures seeded on a 35 mm Petri dish, kept in an incubator with 5% CO2 and 100% humidity. For the evaluation of the cell morphology and confluence and the PG1 production, about 300,000 cells/ml of culture medium were used carrying out the count in a Burker chamber, following three schemes: • 1. Cells+culture medium+EtOH(0.75 g/dl) • 2. Cells+culture medium+EtOH(0.75 g/dl)+FTT([…]) • 3. […]
The cultures were evaluated with an inverse light microscope, at 24 and 48 hours monitoring cell attachment and growth while on supernatant aliquots the stable metabolite of the prostacyclin (6-Keto PGF1) was assayed with RIA method. […]

platelet = assay: Evaluation of the platelet aggregation inhibiting effect in PRP; assay type: cell-based, human; settings: 70 μg/ml
Protocol: 2. Evaluation of the Platelet Aggregation Inhibiting Effect
Blood taken from healthy volunteers not submitted to pharmacological therapy during one week, was gathered in polyethylene test-tubes containing 3.8% sodium citrate in 1:9 ratio, and centrifuged at 1000 g for 10 minutes in order to obtain plasma having a high platelet content (PRP) and at 3000 g for 15 minutes in order to obtain plasma having a low platelet content (PPP). Two […] PRP samples (300,000+/−10000 platelet/ml final concentration) were submitted to incubation at 37° C. for 60 seconds in presence of 100 μl FTT (700 μg/ml) and 10 μl of Asialene ([…]) respectively. Each sample was divided in three portions which were treated with 10 μl of a platelet aggregation agent, ADP ([…] final concentration), collagen (4 μg/ml final concentration) and arachidonic acid (0.2 mg/ml final concentration) respectively, and the aggregation was recorded for 4 minutes.

COc1ccc2c(c1)c(CC(=O)O)c(C)n2C(=O)c1ccc(Cl)cc1 [Indomethacin, indomethacin, reference compound]
ID50 (dose level able to reduce by 50% the oedematous response) [1]: 90 μg/cm^2 | Inhibition (%) of oedema ([1]; topical dose 90 μg/cm^2): 49.3% | Oedema (mg) m ± E.S. ([1]; topical dose 90 μg/cm^2): 3.5 ± 0.4 mg

C[C@@H]1CC[C@]2(C(=O)O)CC[C@]3(C)C(=CCC4[C@@]5(C)C[C@@H](O)[C@H](O)[C@@](C)(CO)C5CC[C@]43C)C2[C@H]1C (stereo partly drawn) [asiatic, 2α, 3β, 23-trihydroxyurs-12-en-28-oic acid]
solubility in water [2]: almost total insolubility in water

C[C@H]1[C@H](C)CC[C@]2(C(=O)O)CC[C@]3(C)C(=CC[C@@H]4[C@@]5(C)C[C@@H](O)[C@H](O)[C@@](C)(CO)[C@@H]5[C@H](O)C[C@]43C)[C@H]12 [madecassic acid]
solubility in water [2]: almost total insolubility in water

Salt of the Asiatic Acid with Ethylenediamine [Asialene]
fibronectin intercellular strands (1:100 scale) (human endothelial cells [3]): 85 | 6-Keto PGF1 (human endothelial cells [4]; 24 h): 980 µg/mL | 6-Keto PGF1 (human endothelial cells [4]; 48 h): 889 µg/mL | ID50 (dose level able to reduce by 50% the oedematous response) [1]: 62 μg/cm^2 | Inhibition (%) of oedema ([1]; topical dose 30 μg/cm^2): 27.5% | Oedema (mg) m ± E.S. ([1]; topical dose 30 μg/cm^2, control 6.9 ± 0.2): 5.0 ± 0.4 mg | Inhibition (%) of oedema ([1]; topical dose 100 μg/cm^2): 68.1% | Oedema (mg) m ± E.S. ([1]; topical dose 100 μg/cm^2, control 6.9 ± 0.2): 2.2 ± 0.5 mg | Inhibition (%) of oedema ([1]; topical dose 300 μg/cm^2): 91.3% | Oedema (mg) m ± E.S. ([1]; topical dose 300 μg/cm^2, control 6.9 ± 0.2): 0.6 ± 0.1 mg | Inhibition (%) of oedema ([1]; topical dose 1000 μg/cm^2): 94.2% | Oedema (mg) m ± E.S. ([1]; topical dose 1000 μg/cm^2, control 6.9 ± 0.2): 0.4 ± 0.1 mg | potency higher than that of the reference drug (comparison between the ID50 values) ([1]; versus indomethacin): 50% | Aggregation from arachidonic acid (0.2 mg/ml) (platelet; controls 81): 23 | Aggregation from ADP (4 mM) (platelet; controls 88): 32 | Aggregation from collagen (4 μg/ml) (platelet; controls 100): 50
